Entries after “also recorded” stand apart in the source; their conditions may differ.
How the values were obtained:
IL-6 (Interleukin 6) = test: IL-6 expression in DHT-treated HDPC supernatant (ELISA); assay type: cell-based, human; conditions: HDPC treated with 100 μg/mL DHT, 30 or 100 ppm, 1 day, FIG. 11
Procedure: Specifically, the following groups were prepared: (i) a negative control group, where neither Dihydrotestosterone (DHT) nor Meloside A and L were treated on human dermal papilla cells (HDPC); (ii) an untreated group, where 100 μg/mL DHT was treated on HDPC, but neither Meloside A nor L was treated; (iii) a positive control group, where HDPC were treated with 100 μM Minoxidil or 20 μM Dexamethasone (DEX); and (iv) a treated group, where HDPC were first treated with 100 μg/mL DHT to increase IL-6 expression, and then treated with Meloside A or L at concentrations of 30 or 100 ppm, respectively, for 1 day. After preparation, the cell supernatants from HDPC of (i) to (iv) were obtained, and the increase or decrease in the expression level of IL-6 (Interleukin 6) was confirmed using an Enzyme-Linked Immunosorbent Assay (ELISA). For the analysis of expression patterns for each sample, normalization was performed based on a standard sample of IL-6, and the results are shown in FIG. 11.

[1] = test system: dermal papilla cells (HDPC); test: Protection against DKK1-induced death of dermal papilla cells (CCK-8); assay type: cell-based, human; conditions: 30 or 100 ppm for 1 day, then DKK1, FIG. 10
Procedure: Specifically, HDPC were treated with Meloside A or L at concentrations of 30 or 100 ppm, respectively, for 1 day, and then cell death was induced with DKK1 (dickkopf WNT signaling pathway inhibitor 1). For comparison, HDPC that were neither treated with Meloside A or L nor with DHT were used as the negative control group. HDPC treated with DHT but without Meloside A and L were used as the untreated group. HDPC treated with 100 μM Minoxidil or 5 mM NAC followed by DHT treatment were used as the positive control group.
CCK-8 (Cell Counting Kit-8, Dojindo, EU) reagent was added to the HDPC according to the manufacturer's protocol, and absorbance was measured at a wavelength of 450 nm using a microplate reader (BioTeK, USA) to confirm the cell viability of dermal papilla cells because of Meloside treatment, compared to the negative control group (treated with DMEM instead of Meloside A or L).

[2] = test system: Vascular Endothelial Growth Factor (VEGF); test: VEGF expression in HDPC supernatant (ELISA); assay type: cell-based, human; conditions: 30 or 100 ppm, 1 day, FIG. 8
Procedure: HDPC were treated with Meloside A or L at concentrations of 30 or 100 ppm, respectively, for 1 day to obtain the cell supernatant. For comparison, HDPC that were not treated with either Meloside A or L were used as the negative control group, and HDPC treated with 100 μM Minoxidil were used as the positive control group.
The increase or decrease in VEGF expression level in the obtained cell supernatant was confirmed through an Enzyme-Linked Immunosorbent Assay (ELISA) method, and the results are shown in FIG. 8.

[3] = test system: human outer root sheath cells (ORS); test: Cytotoxicity / growth-proliferation of outer root sheath cells (CCK-8); assay type: cell-based; conditions: 10, 30, 50, 100 ppm, 1 day, CCK-8, 450 nm, FIG. 2
Procedure: Human Hair Outer Root Sheath Cells (ORS), used in the test examples described below, were cultured in culture plates coated with Poly-L-Lysine, using Mesenchymal Stem Cell Medium (MSCM, ScienCell) supplemented with 5% Fetal Bovine Serum (FBS, ScienCell), 1% Mesenchymal stem cell growth supplement (MSCGS, ScienCell), and antibiotics (Penicillin-Streptomycin, ScienCell) as the culture medium, in an incubator at 37° C., 5% CO2, and humid conditions.
Specifically, after treating human dermal papilla cells (HDPC) or human outer root sheath cells (ORS) with Meloside A or Meloside L at concentrations of 10, 30, 50, and 100 ppm for 1 day, CCK-8 (Cell Counting Kit-8, Dojindo, EU) reagent was added to the treated HDPC according to the manufacturer's protocol. Absorbance was then measured at a wavelength of 450 nm using a microplate reader (BioTeK, USA), and the extent of HDPC growth/proliferation by Meloside treatment was compared and confirmed against the negative control group (treated with DMEM instead of Meloside A or L).

androgen receptor = molecular target: T1, androgen receptor (Homo sapiens, UniProt P10275); test: Androgen receptor nuclear translocation in dermal papilla cells (EGFP-AR, fluorescence microscopy); assay type: cell-based; conditions: DHT co-treated with 100 ppm, 24 hours, FIGS. 5 and 6
T1 construct: host or cells: dermal papilla cells
T1 sequence (P10275 1-920): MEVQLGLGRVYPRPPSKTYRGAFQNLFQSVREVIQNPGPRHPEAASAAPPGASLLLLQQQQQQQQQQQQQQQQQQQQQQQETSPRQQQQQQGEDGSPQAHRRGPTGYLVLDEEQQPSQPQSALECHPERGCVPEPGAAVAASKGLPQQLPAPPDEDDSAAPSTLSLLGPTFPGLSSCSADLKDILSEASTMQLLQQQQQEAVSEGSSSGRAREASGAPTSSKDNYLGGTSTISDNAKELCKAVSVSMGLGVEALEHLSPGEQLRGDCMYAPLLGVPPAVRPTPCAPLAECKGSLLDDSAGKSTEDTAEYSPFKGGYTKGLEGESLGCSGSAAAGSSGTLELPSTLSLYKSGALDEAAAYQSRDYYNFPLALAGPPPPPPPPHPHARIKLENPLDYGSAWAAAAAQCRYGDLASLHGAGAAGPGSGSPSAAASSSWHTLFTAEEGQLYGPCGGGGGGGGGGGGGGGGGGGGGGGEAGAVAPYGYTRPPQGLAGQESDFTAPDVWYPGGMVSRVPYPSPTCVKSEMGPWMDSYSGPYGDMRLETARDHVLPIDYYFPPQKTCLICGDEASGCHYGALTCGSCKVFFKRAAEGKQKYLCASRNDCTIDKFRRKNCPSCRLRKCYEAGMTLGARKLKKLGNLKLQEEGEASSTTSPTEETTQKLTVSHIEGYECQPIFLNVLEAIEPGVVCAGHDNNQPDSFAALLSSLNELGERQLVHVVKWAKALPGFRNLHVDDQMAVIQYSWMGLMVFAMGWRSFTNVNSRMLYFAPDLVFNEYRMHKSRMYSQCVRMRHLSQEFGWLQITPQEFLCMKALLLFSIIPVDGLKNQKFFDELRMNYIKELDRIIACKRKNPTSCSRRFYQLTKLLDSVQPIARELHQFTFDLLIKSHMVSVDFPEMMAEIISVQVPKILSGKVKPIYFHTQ
Procedure: To confirm the involvement of androgen receptors in hair loss-related gene transcription, recombinant plasmid EGFP-AR (Addgene) was used, and the extent of androgen receptor nuclear translocation in dermal papilla cells was measured using a cellular injection method.
For the untreated group, only DHT was treated, and for the negative control group, neither DHT nor the sample was treated. In the experimental group, DHT and Meloside A or L at 100 ppm were co-treated, and after 24 hours, measurements were taken using a fluorescence microscope at Ex 485 nm and Em 535 nm. The results observed with the fluorescence microscope are shown in FIG. 5, and the number of cells with translocated androgen receptors in the treated groups, based on the untreated group, is shown in FIG. 6.

SMILES | IL-6 expression level (IL-6 (Interleukin 6)) | cell protective effect against DKK1 (cell viability) [1] | VEGF expression level [2] | cell growth/proliferation (cytotoxicity) of ORS vs negative control [3] | DHT-induced translocation of androgen receptors (number of cells with translocated AR) (androgen receptor)
O=c1cc(-c2ccc(O)c(O)c2)oc2cc(O)c([C@@H]3O[C@H](CO)[C@@H](O)[C@H](O)[C@H]3O[C@@H]3O[C@H](CO)[C@@H](O)[C@H](O)[C@H]3O)c(O)c12 [Meloside L, isoorientin 2″-O-glucoside] | no IL-6 expression reduction effect was observed | no cell protective effect against DKK1 was observed | increase in VEGF expression | comparable levels of cell growth/proliferation to the negative control group | inhibited
O=c1cc(-c2ccc(O)cc2)oc2cc(O)c([C@@H]3O[C@H](CO)[C@@H](O)[C@H](O)[C@H]3O[C@@H]3O[C@H](CO)[C@@H](O)[C@H](O)[C@H]3O)c(O)c12 [Meloside A, isovitexin 2″-O-glucoside] | decrease in IL-6 expression | cell protective effect against DKK1 was confirmed | increase in VEGF expression; also recorded: superior to that of Meloside L | comparable levels of cell growth/proliferation to the negative control group | inhibited; also recorded: superior to that of Meloside L treatment
